Values after ≈ are worked out from the molar mass of the structure shown.
Experiments:
E. faecalis SR7914 = test: In vitro antibacterial activity (MIC), agar plate dilution; type: cell-based; settings: Enterococcus faecalis, SR7914, read-out: minimum inhibitory concentration (MIC), E. faecalis SR7914, 1000 cfu/spot
Procedure: (§1) A minimum inhibitory concentration was measured as in vitro antibacterial activity. The minimum inhibitory concentration (MIC: μg/ml) was measured according to the standard method of Japanese Society of Chemotherapy, by an agar plate dilution method using 1000 cfu/spot as an inoculum amount and a susceptibility disk medium as a test medium.
(§2) In the tables, a unit of a numerical value of inhibitory activity is μg/ml. In addition, in the tables, S. aureus represents Staphylococcus aureus and E. faecalis represents Gram-positive group D streptococci (enterococci) that are resident in a normal bacterial flora of a human intestinal tract, and can be causative bacteria of endocarditis and the like after surgery.

S. aureus SR3637 = test: as above; type: cell-based; settings: Staphylococcus aureus, SR3637, read-out: minimum inhibitory concentration (MIC), S. aureus SR3637, 1000 cfu/spot
Procedure: as §1, §2

E. faecalis SR1004 = test: as above; type: cell-based; settings: Enterococcus faecalis, SR1004, read-out: minimum inhibitory concentration (MIC), E. faecalis SR1004, 1000 cfu/spot
Procedure: as §1, §2

E. faecium SRM1101 = test: as above; type: cell-based; settings: Enterococcus faecium, SRM1101, read-out: minimum inhibitory concentration (MIC)
Procedure: as §1, §2

E. faecium SR7940 = test: as above; type: cell-based; settings: Enterococcus faecium, SR7940, read-out: minimum inhibitory concentration (MIC), E. faecium SR7940, 1000 cfu/spot
Procedure: as §1, §2

S. aureus ATCC700787 = test: as above; type: cell-based, Staphylococcus aureus; settings: Staphylococcus aureus, ATCC700787, read-out: minimum inhibitory concentration (MIC)
Procedure: as §1, §2

S. aureus ATCC25923 = test: as above; type: cell-based, Staphylococcus aureus; settings: Staphylococcus aureus, ATCC25923, read-out: minimum inhibitory concentration (MIC), S. aureus ATCC25923, 1000 cfu/spot
Procedure: as §1, §2

S. aureus VRS1 = test: as above; type: cell-based, Staphylococcus aureus; settings: Staphylococcus aureus, VRS1, read-out: minimum inhibitory concentration (MIC), S. aureus VRS1, 1000 cfu/spot
Procedure: as §1, §2

[1] = system: 2% red blood cell suspension (defibrated sheep blood); test: In vitro hemolysis test; type: cell-based; settings: sheep red blood cells, 24 hours incubation
Procedure: Hemolysis rates of the compound A drug substance and the liposome formulation of Example 2 were evaluated by the following methods.
A 10 mM concentration solution of each test substance was prepared using a 5% sugar solution as a solvent, and 12 types of formulation solutions were prepared for each test substance up to 0.0049 mM by 2-fold serial dilution. Using 20% FBS-supplemented M-199 medium (With Earle's salts, sodium bicarbonate and 25 mM HEPES, supplement with 0.1 g/L L-glutamine) as a medium, a 2% red blood cell suspension (defibrated sheep blood) was prepared and mixed with a solvent or each test substance formulation solution (n=2). […] A mixed solution of the solvent or each test substance formulation solution and the red blood cell suspension or the medium was incubated for 24 hours, then the supernatant was collected, and an absorbance at 540 nm was measured. At the stage of completion of each incubation, an absorbance of the solvent and the red blood cell suspension, and an absorbance of the solvent and the medium were set to a reference of “hemolysis rate 0%”, and an absorbance of the 100% hemolysis solution was set to a reference of “100% hemolysis”, and a hemolysis rate by mixing and incubating each test substance formulation solution and the red blood cell suspension was calculated by the following calculation formula. […]

[2] = In vitro cytotoxicity test (resazurin); type: cell-based; settings: African green monkey, Vero cells, 72 hours culture
Procedure: Vero cells (final concentration: 2.0×10 to the power of 4 cells/well) cultured in advance and each test substance were added to 96 wells, and cultured for 72 hours under conditions of 5% CO2 and 37° C. Thereafter, 10 μl/well of a 0.01% resazurin solution was added, and after mixing, the cells were cultured under conditions of 5% CO2 and 37° C. for 4 hours, and then a fluorescence value (Ex 531 nm/Em 590 nm) was measured using a microplate reader.

In the case of `CN[C@H](CC(C)C)C(=O)NC1C(=O)N[C@@H](CC(N)=O)C(=O)N[C@H]2C(=O)N[C@H]3C(=O)N[C@H](C(=O)N[C@@H](C(=O)O)c4cc(O)cc(O)c4-c4cc3ccc4O)[C@H](O[C@H]3C[C@](C)(N)[C@@H](O)[C@H](C)O3)c3ccc(c(Cl)c3)Oc3cc2cc(c3O[C@@H]2O[C@H](CO)[C@@H](O[C@@H]3O[C@H](CNCc4ccc(-c5ccc(Cl)cc5)s4)[C@H](O)[C@H](O)[C@H]3O)[C@H](O)[C@H]2O)Oc2ccc(cc2Cl)[C@H]1O` (stereo partly shown) [Compound A drug substance], the MIC (E. faecalis SR7914) is reported as 2 µg/mL (≈ 1.1 µM), the MIC (S. aureus SR3637) is reported as 1 µg/mL (≈ 0.55 µM) and the MIC (E. faecalis SR1004) is reported as 0.5 µg/mL (≈ 0.275 µM). For the same compound, the MIC (E. faecium SRM1101) was 2 µg/mL (≈ 1.1 µM), the MIC (E. faecium SR7940) was 2 µg/mL (≈ 1.1 µM) and the MIC (S. aureus ATCC700787) was 2 µg/mL (≈ 1.1 µM). It also gave an MIC (S. aureus ATCC25923) of 1 µg/mL (≈ 0.55 µM), an MIC (S. aureus VRS1) of 4 µg/mL (≈ 2.2 µM) and a Hemolysis rate [1] of 34%. The CC50 at 72 h [2] was 128 µg/mL (≈ 70.4 µM).
